Experimental data reported in patent publication US8202885B2, “Bridged six-membered ring compounds” (Actelion Pharmaceuticals Ltd., priority 2007, dated 2012).

System: human Cav3.1 Cav3.2 or Cav3.3 channel
Assay: In vitro assay T channel (FLIPR calcium fluorescence)
Assay type: cell-based
Settings: HEK293 cells expressing human Cav3.1, Cav3.2 or Cav3.3; 10 mM Ca2+-induced fluo-4 fluorescence; determined up to 10 μM; read-out: T channel antagonistic activity IC50
Procedure: The T channel antagonistic activity (IC50 values) of the compounds of formula (I) is determined in accordance with the following experimental method and data are shown in Table 1.
Human embryonic kidney (HEK293) cells expressing the human Cav3.1 Cav3.2 or Cav3.3 channel, respectively, are grown in culture medium (DMEM containing 10% heat-inactivated fetal calf serum (FCS), 100 U/ml penicillin, 100 μg/ml streptomycin and 1 mg/ml G418). The cells are seeded at 20.000 cells/well into 384-well black clear bottom sterile plates (poly-L-lysine-coated, Becton Dickinson). The seeded plates are incubated overnight at 37° C. in 5% CO2. The Ca^2+ solution is prepared as 100 mM stock solution in 100 mM tetraethylammoniumchloride (TEA-chloride), 50 mM HEPES, 2.5 mM CaCl2, 5 mM KCl, 1 mM MgCl2, adjusted to pH 7.2 with TEA-hydroxide, for use in the assay at a final concentration of 10 mM. Antagonists are prepared as 10 mM stock solutions in DMSO, then diluted in 384 w plates first in DMSO, then in 100 mM TEA-chloride, 50 mM HEPES, 2.5 mM CaCl2, 5 mM KCl, 1 mM MgCl2, adjusted to pH 7.2 with TEA-hydroxide, to obtain 9× stocks. On the day of the assay, 25 μl of staining buffer (HBSS containing 20 mM HEPES, 0.375 g/l NaHCO3 and 3 μM of the fluorescent calcium indicator fluo-4 AM (1 mM stock solution in DMSO, containing 10% pluronic) is added to each well of the seeded plate. The 384-well cell-plates are incubated for 60 min at 37° C. in 5% CO2 followed by washing with 2×50 μl per well using HBSS containing 0.1% BSA, 20 mM HEPES, 0.375 g/l NaHCO3, leaving 50 […] of this buffer for equilibration at room temperature (30-60 min). Within the Fluorescent Imaging Plate Reader (FLIPR, Molecular Devices), antagonists are added to the plate in a volume of 6.25 μl/well, incubated for 3 min, and finally 6.25 […] of Ca^2+ solution is added. Fluorescence is measured for each well at 2 second intervals for 8 minutes, and the area under the curve of each fluorescence peak is compared to the area of the fluorescence peak induced by 10 mM Ca^2+ with vehicle in place of antagonist. For each antagonist, the IC50 value (the concentration (in nM) of compound needed to inhibit 50% of the Ca^2+-induced fluorescence response) up to 10 μM is determined.

Row | Structure (SMILES) | IC50
1 | COc1ccc(CCCN(C)CC[C@]2(OC(=O)C(C)C)C[C@H]3CC[C@@H]2C=C3c2ccccc2)cc1OC (relative stereo) [Example 39A, rac-Isobutyric acid (1R*,2R*,4R*)-2-(2-{[3-(3,4-dimethoxy-phenyl)-propyl]-methyl-amino}-ethyl)-5-phenyl-bicyclo[2.2.2]oct-5-en-2-yl ester] | 7490 nM
2 | COc1ccccc1C1=C[C@H]2CC[C@@H]1C[C@]2(CCN(C)CCCc1nc2ccccc2[nH]1)OC(=O)C(C)C (relative stereo) [Example 23A, rac-Isobutyric acid (1R*,2R*,4R*)-2-(2-{[3-(1H-benzoimidazol-2-yl)-propyl]-methyl-amino}-ethyl)-5-(2-methoxy-phenyl)-bicyclo[2.2.2]oct-5-en-2-yl ester] | 4010 nM
3 | CC(C)C(=O)O[C@@]1(CCN(C)CCCc2nc3c(Cl)cccc3[nH]2)C[C@H]2CC[C@@H]1C=C2c1ccccc1 (relative stereo) [Example 57A, rac-Isobutyric acid (1R*,2R*,4R*)-2-(2-{[3-(4-chloro-1H-benzoimidazol-2-yl)-propyl]-methyl-amino}-ethyl)-5-phenyl-bicyclo[2.2.2]oct-5-en-2-yl ester] | 1980 nM
4 | COc1cc2nc(CCCN(C)CC[C@]3(O)C[C@H]4CC[C@@H]3C=C4c3ccccc3)[nH]c2cc1OC (relative stereo) [Example 28, rac-(1R*,2R*,4R*)-2-(2-{[3-(5,6-Dimethoxy-1H-benzoimidazol-2-yl)-propyl]-methyl-amino}-ethyl)-5-phenyl-bicyclo[2.2.2]oct-5-en-2-ol] | 2530 nM
5 | CN(CCCc1nc2ccccc2[nH]1)CCC1(O)CC2CCC1C=C2c1ccccc1 (single isomer, unassigned) [Example 11, (1R,2R,4R)-2-(2-{[3-(1H-Benzoimidazol-2-yl)-propyl]-methyl-amino}-ethyl)-5-phenyl-bicyclo[2.2.2]oct-5-en-2-ol or (1S,2S,4S)-2-(2-{[3-(1H-benzoimidazol-2-yl)-propyl]-methyl-amino}-ethyl)-5-phenyl-bicyclo[2.2.2]oct-5-en-2-ol] | > 10000 nM
6 | CC(C)C(=O)O[C@@]1(CCN(C)CCCc2nc3ccccc3[nH]2)C[C@@H]2C=C[C@H]1CC2 (relative stereo) [Example 75A, rac-Isobutyric acid (1R*,2R*,4R*)-2-(2-{[3-(1H-benzoimidazol-2-yl)-propyl]-methyl-amino}-ethyl)-bicyclo[2.2.2]oct-5-en-2-yl ester] | 1780 nM
7 | CC(C)C(=O)O[C@@]1(CCN(C)CCCc2nc3ccccc3[nH]2)C[C@H]2CC[C@@H]1C=C2c1nccs1 (relative stereo) [Example 24A, rac-Isobutyric acid (1R*,2R*,4R*)-2-(2-{[3-(1H-benzoimidazol-2-yl)-propyl]-methyl-amino}-ethyl)-5-thiazol-2-yl-bicyclo[2.2.2]oct-5-en-2-yl ester] | 2750 nM
8 | CN(CCCc1nc2ccccc2[nH]1)CC[C@]1(O)C[C@H]2CC[C@@H]1C=C2c1ccc(F)cc1 (relative stereo) [Example 8, rac-(1R*,2R*,4R*)-2-(2-{[3-(1H-Benzoimidazol-2-yl)-propyl]-methyl-amino}-ethyl)-5-(4-fluoro-phenyl)-bicyclo[2.2.2]oct-5-en-2-ol] | 1790 nM
9 | Cc1nc(CCCN(C)CC[C@]2(OC(=O)C(C)C)C[C@H]3CC[C@@H]2C=C3c2ccccc2)[nH]c1-c1ccccc1 (relative stereo) [Example 71A, rac-Isobutyric acid (1R*,2R*,4R*)-2-(2-{methyl-[3-(4-methyl-5-phenyl-1H-imidazol-2-yl)-propyl]-amino}-ethyl)-5-phenyl-bicyclo[2.2.2]oct-5-en-2-yl ester] | 1450 nM
10 | CO[C@@]1(c2ccccc2)C[C@H]2CC[C@@H]1C[C@@]2(CCN(C)CCCc1nc2ccccc2[nH]1)OC(=O)C(C)C (relative stereo) [Example 77A, rac-Isobutyric acid (1R*,2S*,4R*,5S*)-2-(2-{[3-(1H-benzoimidazol-2-yl)-propyl]-methyl-amino}-ethyl)-5-methoxy-5-phenyl-bicyclo[2.2.2]oct-2-yl ester] | 2630 nM
11 | COc1cccc2[nH]c(CCCN(C)CC[C@]3(O)C[C@H]4CCC[C@@H]3C=C4c3ccccc3)nc12 (relative stereo) [Example 36, rac-(1R*,5R*,6R*)-6-(2-{[3-(4-Methoxy-1H-benzoimidazol-2-yl)-propyl]-methyl-amino}-ethyl)-8-phenyl-bicyclo[3.2.2]non-8-en-6-ol] | 1330 nM
12 | CC1=C(c2ccccc2)[C@H]2CC[C@@H]1C[C@@]2(CCN(C)CCCc1nc2ccccc2[nH]1)OC(=O)C(C)C (relative stereo) [Example 17C, rac-Isobutyric acid (1R*,2S*,4R*)-2-(2-{[3-(1H-benzoimidazol-2-yl)-propyl]-methyl-amino}-ethyl)-5-methyl-6-phenyl-bicyclo[2.2.2]oct-5-en-2-yl ester] | 550 nM
13 | CCCC1=C(C)[C@H]2CC[C@@H]1C[C@@]2(O)CCN(C)CCCc1nc2ccccc2[nH]1 (relative stereo) [Example 16, rac-(1R*,2R*,4R*)-2-(2-{[3-(1H-Benzoimidazol-2-yl)-propyl]-methyl-amino}-ethyl)-6-methyl-5-propyl-bicyclo[2.2.2]oct-5-en-2-ol] | 5690 nM
14 | CN(CCCc1nc2ccccc2[nH]1)CC[C@]1(O)C[C@H]2CC[C@@H]1C=C2c1cccs1 (relative stereo) [Example 21, rac-(1R*,2R*,4R*)-2-(2-{[3-(1H-Benzoimidazol-2-yl)-propyl]-methyl-amino}-ethyl)-5-thiophen-2-yl-bicyclo[2.2.2]oct-5-en-2-ol] | 3470 nM
15 | COC(=O)c1cccc2[nH]c(CCCN(C)CC[C@]3(O)C[C@H]4CC[C@@H]3C=C4c3ccccc3)nc12 (relative stereo) [Example 19, rac-2-(3-{[2-((1R*,2R*,4R*)-2-Hydroxy-5-phenyl-bicyclo[2.2.2]oct-5-en-2-yl)-ethyl]-methyl-amino}-propyl)-1H-benzoimidazole-4-carboxylic acid methyl ester] | 1570 nM
16 | COC(=O)c1ccc2[nH]c(CCCN(C)CC[C@]3(O)C[C@H]4CC[C@@H]3C=C4c3ccccc3)nc2c1 (relative stereo) [Example 20, rac-2-(3-{[2-((1R*,2R*,4R*)-2-Hydroxy-5-phenyl-bicyclo[2.2.2]oct-5-en-2-yl)-ethyl]-methyl-amino}-propyl)-1H-benzoimidazole-5-carboxylic acid methyl ester] | > 10000 nM
17 | CN(CCCc1cnc2ccccc2c1)CC[C@]1(O)C[C@H]2CC[C@@H]1C=C2c1ccccc1 (relative stereo) [Example 49, rac-(1R*,2R*,4R*)-2-{2-[Methyl-(3-quinolin-3-yl-propyl)-amino]-ethyl}-5-phenyl-bicyclo[2.2.2]oct-5-en-2-ol] | > 10000 nM
18 | CC(C)C(=O)O[C@@]1(CCN(C)CCCc2nc3ccccc3[nH]2)C[C@H]2CC[C@@H]1C=C2c1ncco1 (relative stereo) [Example 25A, rac-Isobutyric acid (1R*,2R*,4R*)-2-(2-{[3-(1H-benzoimidazol-2-yl)-propyl]-methyl-amino}-ethyl)-5-oxazol-2-yl-bicyclo[2.2.2]oct-5-en-2-yl ester] | 1590 nM
19 | CCOc1cccc2nc(CCCN(C)CC[C@]3(OC(=O)C(C)C)C[C@H]4CC[C@@H]3C=C4c3ccccc3)[nH]c12 (relative stereo) [Example 31A, rac-Isobutyric acid (1R*,2R*,4R*)-2-(2-{[3-(7-ethoxy-1H-benzoimidazol-2-yl)-propyl]-methyl-amino}-ethyl)-5-phenyl-bicyclo[2.2.2]oct-5-en-2-yl ester] | 2600 nM
20 | CC(C)Oc1cccc2nc(CCCN(C)CC[C@]3(OC(=O)C(C)C)C[C@H]4CC[C@@H]3C=C4c3ccccc3)[nH]c12 (relative stereo) [Example 33A, rac-Isobutyric acid (1R*,2R*,4R*)-2-(2-{[3-(7-isopropoxy-1H-benzoimidazol-2-yl)-propyl]-methyl-amino}-ethyl)-5-phenyl-bicyclo[2.2.2]oct-5-en-2-yl ester] | 1660 nM
21 | CN(CCCc1nc2ccccc2[nH]1)CC[C@]1(O)C[C@H]2CC[C@@H]1C=C2c1cccnc1 (relative stereo) [Example 9, rac-(1R*,2R*,4R*)-2-(2-{[3-(1H-Benzoimidazol-2-yl)-propyl]-methyl-amino}-ethyl)-5-pyridin-3-yl-bicyclo[2.2.2]oct-5-en-2-ol] | > 10000 nM
